Test results from patent publication US7470434B1, “Methods and compositions for blocking microbial adherence to eukaryotic cells” (priority 2007, dated 2008).

Key:
Assay type in all cases: in vivo, human
[1] = system: bacterial vaginosis; test: Amelioration of bacterial vaginosis by local isoleucine powder
Protocol: In this example isoleucine was administered locally to the vagina to treat the symptoms of bacterial vaginosis. By inhibiting the adherence of bacteria to the wall of the vagina, microbial growth, inflammation, and associated signs of malodorous discharge and symptoms such as pruritis can be treated. A person, with a normal menstrual cycle and in excellent health, experienced vaginal irritation and malodorous discharge associated with their cycle, generally beginning several days prior to the onset of their period. Isoleucine was self-administered as a powder locally within the vaginal cavity digitally, twice a day. Within 2 days symptoms of vaginosis disappeared. Isoleucine therapy was continued for several days following termination of menstrual discharge, and then stopped. […] Isoleucine was again administered during the following months, cycled as described initially.

[2] = Amelioration of irritable bowel syndrome by isoleucine in yogurt
Protocol: In this example isoleucine was administered to individuals who experienced irritable bowel syndrome (IBS). IBS is a loosely defined condition associated with bowel discomfort including abdominal bloating, nausea, pain and a sense of incomplete bowel movements. The etiology underlying IBS is unknown. It is our hypothesis that IBS results from adherence of certain “pathogenic” commensal organisms to the epithelial lining of certain segments of the GI tract, resulting in disturbance of normal host-bacteria relationships. […] Two women, each in their mid-50's, presented with a history of IBS of over 20 years, in each case. In each, IBS was characterized by a sense of bloating experienced after eating cooked or raw vegetables, fruits, and meat. Each individual experienced urgency to move her bowels several times a day to an extent that often awakened the individuals from sleep. Bloating was accompanied by abdominal discomfort, described as mild cramps. Individuals felt “gassy” most of the day. Each individual was given isoleucine, 1 tsp, twice a day, each dose mixed in ½ cup of yogurt. The yogurt was included to promote reinoculation of the GI tract with probiotic “good” bacteria. In each case, it was known from previous experience that yogurt itself had little effect on the IBS experienced by these individuals. Within 2 day so isoleucine administration, bloating, urgency to defecate, and gassiness had disappeared. Both individuals described the state of their bowel function as “normal”, for the first time in 20 years. […] Each was then withdrawn from isoleucine, and provided yogurt unsupplemented with isoleucine. Within about 2 days both women recorded a reappearance of the former symptoms of IBS.

[3] = system: bacteria adherent to gingival epithelial cells; test: Treatment of gingival infection: microbial adherence to gingival epithelial cells (Giemsa-stained gingival scrapings); details: for Gingival epithelial cells with 0 Bacteria / Gingival epithelial cells with 1-10 Bacteria / Gingival epithelial cells with 10-100 Bacteria / Gingival epithelial cells with Contiguous lawn: powder on gums twice daily
Text: In this example isoleucine was applied as a pure crystalline powder directly to the gums. The individuals were normal human volunteers. Each individual had clinically evident low grade gingivitis, as determined by the puffiness of the gingival margin and a history of some bleeding during normal dental brushing. Oral health care comprised twice daily flossing and dental brushing with a non-medicated toothpaste. No oral antiseptic was used. The individuals were not taking antibiotics. Isoleucine was applied by application of powder on the fingertip to the outer and inner gum margins of the upper and lower jaws. The entirety of the gingival surface was covered manually, twice daily. The AM application was performed following breakfast, immediately after brushing. The PM application was conducted prior to retiring for sleep.
Gingival surface was gently scrapped with the side of a rectangular glass cover slip and the material described was applied to a glass microscope slide and air-dried. The slide was stained in concentrated Giemsa stain for 1 min, then destained in water for 5 min. The slide was then air-dried and mounted with a cover slip cemented with Permount. Slides were examined by light microscopy at 100× and 400× magnification. Under these staining conditions bacteria were clearly visualized as dark blue particles against the pale gray epithelial cells.
Gingival scrapings were taken in the morning prior to normal oral care and prior to eating. Prior to scraping, the subject rinsed the mouth with a cup of water to wash free particulate matter, unattached cells, and bacteria.
Scrapings were taken 3 days and 1 day prior to isoleucine administration and 1, 3, 5, and 7 days during isoleucine application. […] The bacteria adherent were represented by several different species, distinguished by morphology. […] At least 200 bacteria were counted on the average on each cell.

[4] = system: diarrheal agent (nature not known); test: Amelioration of infectious diarrhea by oral isoleucine solution
Protocol: In this example isoleucine was administered to treat infectious diarrhea. In this example three individuals were naturally innoculated by a common agent. The nature of the diarrheal agent is not known. The duration of diarrhea was consistent with an infectious etiology. Isoleucine was utilized based on the hypothesis that reduction in microbial adherence would likely limit the continued re-infection of the gut wall by the agent, and/or prevent attachment of opportunistic commensal organisms.
Three members of a family traveling in the Middle East (MZ, BZ, JZ) contracted watery diarrhea, associated with food intolerance, following a meal they shared at a restaurant. Each individual had been in excellent health without prior history of GI complaints. All were unmedicated, including aspirin or antihistanines. […] Diarrhea was watery, without gross blood, minimal mucous, slight fever with chills, no nausea, and persistence of hunger. Peristalsis was vigorous and increased by ingestion of food. Each individual was placed on a diet restricted to clear liquids (juices and soda), digestible carbohydrates (bread, rice, candy). No medications were administered.
Six days after ingestion of the diarrheal agent, one individual was begun on oral isoleucine (ILE) therapy, while the other two continued on restricted diets. ILE (#E-2025 Bachem, lot 511191) was dissolved in distilled water to 0.001%. One glass of ILE solution (about 250 ml) was consumed every several hours. A total of about 4 liters was consumed over 3½ days. A reduction in stool frequency was noted within 12 hours of initiation of ILE therapy.
BZ and JZ both continued to experience diarrhea unabated until about 11 days after ingestion of the infectious agent, with stool frequency decreasing noticeably. […] Thus, isoleucine therapy was associated with a shortening of the duration of diarrhea by approximately three days.

[5] = Day 1 of isoleucine application
[6] = Day 3 of isoleucine application
[7] = Day 7 of isoleucine application
[8] = 3rd day of ILE therapy, individual

For `CC[C@H](C)[C@H](N)C(=O)O` [isoleucine], which “Status following cessation of isoleucine administration” value ([1]; after therapy continued several days past menstrual discharge) is on record?
Its value is “remained symptom free”.

What about the “Overall outcome of chronic vaginosis” value ([1]; repeated cycled administration in following months, based on symptoms and signs) of the same compound?
Its value is “effectively cured”.

And the Response during maintenance ([2]; maintained on isoleucine for 1 month)?
Its Response during maintenance is “consistent response”.

What about the “State of bowel function as described by the individuals” value ([2]; on isoleucine 1 tsp twice a day in yogurt) of the same compound?
The value was “normal”.

What about the “Time to reappearance of former symptoms of IBS after withdrawal from isoleucine” value ([2]; yogurt unsupplemented with isoleucine) of the same compound?
Its value is at most 2 days.

And the “Gingival epithelial cells with 0 Bacteria” value [3, 5]?
The value was 0 % cells.

And the “Gingival epithelial cells with 1-10 Bacteria” value [3, 5]?
The value was 10 % cells.

What about the “Gingival epithelial cells with 10-100 Bacteria” value [3, 5] of the same compound?
The value was 10 % cells.

What about the “Gingival epithelial cells with Contiguous lawn” value [3, 5] of the same compound?
Its value is 80 % cells.

What about the “Adherent bacteria in gingival smear” value ([3]; Day 3) of the same compound?
The value was “dramatic reduction”.

What about the “Cells fully covered with bacteria, of 100 cells examined” value ([3]; Day 3) of the same compound?
The value was 40.

And the “Microcolonies (contiguous groupings of greater than 4 organisms) on cells” value ([3]; Day 3)?
The value was “Few”.

What about the “Neutrophils in gingival smear (sign of inflammation)” value ([3]; Day 3) of the same compound?
The value was “No neutrophils were evident”.

And the “Total adherent bacteria per cell (most cells)” value ([3]; Day 3)?
The value was under 100.

And the “Gingival epithelial cells with 0 Bacteria” value [3, 6]?
Its value is 15 % cells.

What about the “Gingival epithelial cells with 1-10 Bacteria” value [3, 6] of the same compound?
The value was 15 % cells.

What about the “Gingival epithelial cells with 10-100 Bacteria” value [3, 6] of the same compound?
Its value is 30 % cells.

And the “Gingival epithelial cells with Contiguous lawn” value [3, 6]?
Its value is 40 % cells.

And the “Cells completely free of bacteria” value ([3]; Day 7)?
The value was 80%.

What about the “Cells fully covered with adherent bacteria” value ([3]; Day 7) of the same compound?
Its value is 5%.

What about the “Cells with 1 to 10 bacteria/cell” value ([3]; Day 7) of the same compound?
The value was 15%.

What about the “Breath as described by an examiner” value ([3]; Day 7, in the AM, prior to oral hygiene) of the same compound?
Its value is “free of odor”.

And the “Gingival epithelial cells with 0 Bacteria” value [3, 7]?
Its value is 80 % cells.

And the “Gingival epithelial cells with 1-10 Bacteria” value [3, 7]?
The value was 15 % cells.

What about the “Gingival epithelial cells with 10-100 Bacteria” value [3, 7] of the same compound?
Its value is 0 % cells.

And the “Gingival epithelial cells with Contiguous lawn” value [3, 7]?
Its value is 5 % cells.

And the “Change in the number of epithelial cells covered with a dense coat of bacteria” value ([3]; gingival smear, Day 1 following initiation)?
The value was “little change”.

And the Food tolerance [4, 8]?
The Food tolerance was “cheese and chicken tolerated”.

And the Stools passed [4, 8]?
Its Stools passed is “no stools were passed”.

What about the “Shortening of the duration of diarrhea” value ([4]; MZ on isoleucine versus BZ and JZ on restricted diet only) of the same compound?
The value was “approximately three”.

What about the “Day following ILE treatment by which a normal stool was passed and the diarrheal episode had passed” value ([4]; individual MZ) of the same compound?
Its value is at most 4 days.

What about the “Time to reduction in stool frequency after initiation of ILE therapy” value ([4]; one individual, 0.001% ILE in distilled water, about 250 ml every several hours, begun six days after ingestion of agent) of the same compound?
The value was at most 12 h.
